Results taken from PMC6669322, “Small Molecule Binding to Alzheimer Risk Factor CD33 Promotes Aβ Phagocytosis” (iScience, 2019).

Target: CD33 R119A (Homo sapiens, UniProt P20138, R119A)
Assay: surface plasmon resonance (SPR), CD33 R119A mutant
Format: binding
Set-up: DNA encoding D18 to H143 of human CD33; octa-histidine tag with TEV protease cleavage site (N); made in house; host or cells: E. coli BL21* (the general protein production text; the R119A protein is not described on its own)
Details: P22 as analyte, captured CD33 R119A
Source text: We next performed surface plasmon resonance (SPR) measurements on P22 binding to CD33 wild-type, and selected mutants, to obtain detailed kinetic data (see Transparent Methods). The CD33 V-set domain has a free cysteine residue (C36), which caused anomalous results in some of our SPR experiments due to disulfide-linked oligomers forming in solution.
P22 (β-D-Glucopyranoside, 2-aminoethyl O-[N-[2-(4-cyclohexyl-1H-1,2,3-triazol-1-yl)acetyl]-9-deoxy-9-[(4-hydroxy-3,5-dimethylbenzoyl)amino]-α-neuraminosyl] (2→6)-O-β-D-galactopyranosyl-(1→4)-; CAS registry number [1809735-27-0]) was synthesized as described by Paulson and co-workers (Rillahan et al., 2014). Biotinylated P22 (Figure S1C) was prepared by treatment of a solution of P22 (12 mg, 0.012 mmol) in dimethylformamide (1 mL), with DIPEA (8.6 µL, […]) followed by addition of (+)- biotin N-hydroxysuccinimide ester (4.2 mg, 0.012 mmol), the resulting reaction mixture was then stirred for 2 h at RT. After which the reaction mixture was concentrated in vacuo and purified by reverse phase, performed via preparative HPLC (Stationary phase: RP XBridge Prep C18 OBD- 5µm,19x150mm, Mobile phase: 0.25% NH4HCO3 solution in water, CH3CN) to afford Biotin-P22 (9 mg, yield 60.9%). […]

CD33 R119A, sequence (P20138 18-143 R119A): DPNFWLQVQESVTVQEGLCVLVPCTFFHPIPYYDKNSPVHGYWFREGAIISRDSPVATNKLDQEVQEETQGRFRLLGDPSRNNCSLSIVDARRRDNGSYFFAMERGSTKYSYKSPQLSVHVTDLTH

- binding observed by SPR: no binding
SMILES: Cc1cc(C(=O)NC[C@@H](O)[C@@H](O)[C@@H]2O[C@@](OC[C@H]3O[C@@H](O[C@H]4[C@H](O)[C@@H](O)[C@H](OCCN)O[C@@H]4CO)[C@H](O)[C@@H](O)[C@H]3O)(C(=O)O)C[C@H](O)[C@H]2NC(=O)Cn2cc(C3CCCCC3)nn2)cc(C)c1O [P22, β-D-Glucopyranoside, 2-aminoethyl O-[N-[2-(4-cyclohexyl-1H-1,2,3-triazol-1-yl)acetyl]-9-deoxy-9-[(4-hydroxy-3,5-dimethylbenzoyl)amino]-α-neuraminosyl] (2→6)-O-β-D-galactopyranosyl-(1→4)-]
